The target of one experiment is T1, human GST-CLK1 (Homo sapiens, UniProt P49759).
T1 construct: purified human GST-CLK1 (129-end, SignalChem) enzyme; purchased SignalChem
Nature of the experiment: GST-CLK1 enzyme inhibition, ADP-Glo kinase assay. The class given is biochemical. The conditions noted are these: ATP 10 μM, GST-CLK1 129-end. An outline of the steps:
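ADP-Glo luminescence read-out, relative to untreated solvent control, gave IC50 (nM) from triplicate data sets. Reactions ran an hour at 25° C with 3 ng GST-CLK1 (residues 129-end), 10 μM ATP and specific substrate in Tris-HCl pH 7.4 buffer with MgCl2, BSA and DTT.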

In another experiment the target is T2, human GST-DYRK1A (Homo sapiens, UniProt Q13627).
T2 construct: purified human GST-DYRK1A (full length, Thermo Scientifics) enzyme; purchased Thermo Scientifics
Kind of experiment: GST-DYRK1A enzyme inhibition, ADP-Glo kinase assay. The experiment is classed as biochemical. The following applies: ATP 10 μM, GST-DYRK1A full length, read-out: DYRK1 IC50. The gist of the method:
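Full-length enzyme (10 ng) was incubated with 10 μM ATP and a specific substrate for 1 h at 25 °C in 40 mM Tris-HCl pH 7.4, 20 mM MgCl2, 0.5 mg/mL BSA, 50 μM DTT. Luminescence was read against a solvent control, and IC50 values were derived from 3 data sets.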

For orientation: pIC50 means the negative decadic logarithm of the IC50, by convention in mol/L.

pIC50: −log10 of the molar value. Bounds are passed on as bounds.

T1 sequence (P49759 129-484 limits assumed): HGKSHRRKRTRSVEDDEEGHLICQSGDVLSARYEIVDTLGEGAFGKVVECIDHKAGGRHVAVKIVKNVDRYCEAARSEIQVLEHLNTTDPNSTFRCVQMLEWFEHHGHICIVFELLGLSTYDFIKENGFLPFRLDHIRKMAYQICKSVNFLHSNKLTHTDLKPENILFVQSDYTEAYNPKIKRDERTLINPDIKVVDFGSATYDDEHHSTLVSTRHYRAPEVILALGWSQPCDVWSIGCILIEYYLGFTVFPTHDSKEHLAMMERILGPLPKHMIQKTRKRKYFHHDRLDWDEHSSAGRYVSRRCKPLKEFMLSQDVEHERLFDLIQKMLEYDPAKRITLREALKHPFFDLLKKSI

Take `COc1cc(P2(=O)CCN(C3COC3)CC2)ccc1Nc1nc(N[C@@H]2CCOC2)c2c(C#N)c[nH]c2n1` [Example 299, (R)-2-((2-methoxy-4-(1-(oxetan-3-yl)-4-oxido-1,4-azaphosphinan-4-yl)phenyl)amino)-4-((tetrahydrofuran-3-yl)amino)-7H-pyrrolo[2,3-d]pyrimidine-5-carbonitrile]: the pIC50 at human GST-CLK1 was 6.52 to 7.00; on human GST-DYRK1A it was 6.00 to 6.52.

Take `CC[C@@H](C)Nc1nc(Nc2ccc(C(=O)N3CC(CO)(CO)C3)c3c2OCCO3)nc2[nH]cc(C#N)c12` [Example 330, (R)-2-((8-(3,3-bis(hydroxy-methyl)azetidine-1-carbonyl)-2,3-dihydrobenzo[b] [1,4]dioxin-5-yl)amino)-4-(sec-butylamino)-7H-pyrrolo[2,3-d]pyrimidine-5-carbonitrile]: the pIC50 was more than 7.00 against human GST-CLK1 and 6.00 to 6.52 at human GST-DYRK1A.

As for `CC[C@@H](C)Nc1nc(Nc2ccc(S(=O)(=O)N3CCC(N4CCOCC4)CC3)cc2OC)nc2[nH]ccc12` [Example 15, (R)-N^4-(sec-butyl)-N^2-(2-methoxy-4-((4-morpholinopiperidin-1-yl)sulfonyl)phenyl)-7H-pyrrolo[2,3-d]pyrimidine-2,4-diamine], the pIC50 against human GST-CLK1 and at human GST-DYRK1A was 6.00 to 6.52 in each case.

Take `CC(C)Nc1nc(Nc2ccc(C(=O)N3CCC(N4CCOCC4)CC3)c3c2OCCO3)nc2[nH]cc(C(F)(F)F)c12` [Example 365, (8-((4-(isopropylamino)-5-(trifluoromethyl)-7H-pyrrolo[2,3-d]pyrimidin-2-yl)amino)-2,3-dihydrobenzo[b] [1,4]dioxin-5-yl) (4-morpholino-piperidin-1-yl)methanone]: the pIC50 against human GST-CLK1 and at human GST-DYRK1A was more than 7.00 throughout.

As for `COc1cc(P2(=O)CCN(C3COC3)CC2)ccc1Nc1nc(NC2CC2)c2c(C#N)c[nH]c2n1` [Example 286, 4-(cyclo-propylamino)-2-((2-methoxy-4-(1-(oxetna-3-yl)-4-oxido-1,4-azaphosphinan-4-yl)phenyl)amino)-7H-pyrrolo[2,3-d]pyrimidine-5-carbonitrile], the pIC50 at human GST-CLK1 is more than 7.00; at human GST-DYRK1A it was 6.00 to 6.52.

Turning to `COc1cc(P2(=O)CCN(C3CC3)CC2)ccc1Nc1nc(NCC2CC2)c2c(C#N)c[nH]c2n1` [Example 304, 2-((4-(1-cyclopropyl-4-oxido-1,4-azaphosphinan-4-yl)-2-methoxyphenyl)a-mino)-4-((cyclo-propylmeth-yl)amino)-7H-pyrrolo[2,3-d]pyrimidine-5-carbonitrile], the pIC50 against human GST-CLK1 and on human GST-DYRK1A was 6.00 to 6.52 each time.

For the compound `CC(C)CNc1nc(Nc2ccc(C(=O)N3CCC(N4CCOCC4)CC3)c3c2OCCO3)nc2[nH]cc(C(F)(F)F)c12` [Example 199, (8-((4-(isobutylamino)-5-(trifluoromethyl)-7H-pyrrolo[2,3-d]pyrimidin-2-yl)amino)-2,3-dihydrobenzo[b][1,4]dioxin-5-yl)(4-morpholinopiperidin-1-yl)methanone], the pIC50 on human GST-CLK1 is more than 7.00; at human GST-DYRK1A, 6.00 to 6.52.

Take `CC[C@H](C)Nc1nc(Nc2ccc(S(=O)(=O)N3CCC(N4CCOCC4)CC3)cc2OC)nc2[nH]ccc12` [Example 17, (S)-N^4-(sec-butyl)-N^2-(2-methoxy-4-((4-morpholinopiperidin-1-yl)sulfonyl)phenyl)-7H-pyrrolo[2,3-d]pyrimidine-2,4-diamine]: the pIC50 against human GST-CLK1 and at human GST-DYRK1A was 6.00 to 6.52 throughout.

As for `O=C(c1ccc(Nc2nc(N[C@@H]3CCOC3)c3cc[nH]c3n2)c2c1OCCO2)N1CCOCC1` [Example 50, (R)-morpholino(8-((4-((tetrahydrofuran-3-yl)amino)-7H-pyrrolo[2,3-d]pyrimidin-2-yl)amino)-2,3-dihydrobenzo[b][1,4]dioxin-5-yl)methanone], the pIC50 at human GST-CLK1 and on human GST-DYRK1A was 6.00 to 6.52 throughout.

On to `O=C(c1ccc(Nc2nc(N[C@H]3CCOC3)c3cc[nH]c3n2)c2c1OCCO2)N1CCOCC1` [Example 51, (S)-morpholino(8-((4-((tetrahydrofuran-3-yl)amino)-7H-pyrrolo[2,3-d]pyrimidin-2-yl)amino)-2,3-dihydrobenzo[b][1,4]dioxin-5-yl)methanone], for which the pIC50 against human GST-CLK1 and at human GST-DYRK1A was 6.00 to 6.52 in each case.

`CNc1nc(Nc2ccc(P3(=O)CCN(C4COC4)CC3)cc2OC)nc2[nH]cc(C#N)c12` [Example 154, 2-((2-methoxy-4-(1-(oxetan-3-yl)-4-oxido-1,4-azaphosphinan-4-yl)phenyl)amino)-4-(methylamino)-7H-pyrrolo[2,3-d]pyrimidine-5-carbonitrile]: the pIC50 at human GST-CLK1 and on human GST-DYRK1A was 6.00 to 6.52 each time.

As for `CCCCNc1nc(Nc2ccc(C(=O)N3CCOCC3)c3c2OCCO3)nc2[nH]cc(C(F)(F)F)c12` [Example 208, (8-((4-(butylamino)-5-(trifluoromethyl)-7H-pyrrolo[2,3-d]pyrimidin-2-yl)amino)-2,3-dihydrobenzo[b][1,4]dioxin-5-yl)(morpholino)methanone], the pIC50 against human GST-CLK1 and at human GST-DYRK1A was 6.00 to 6.52 throughout.

`N#Cc1c[nH]c2nc(Nc3ccc(C(=O)N4CC(CO)(CO)C4)c4c3OCCO4)nc(NCC3CC3)c12` [Example 338, 2-((8-(3,3-bis (hydroxymethyl)azetidine-1-carbonyl)-2,3-dihydrobenzo [b][1,4]dioxin-5-yl)amino)-4-((cyclopropyl-meth-yl)amino)-7H-pyrrolo[2,3-d]pyrimidine-5-carbonitrile]: the values for the pIC50 at human GST-CLK1 and at human GST-DYRK1A were more than 7.00 and 6.52 to 7.00, respectively.

As to `COc1cc(P(C)(C)=O)ccc1Nc1nc(NC2CCC2)c2c(C#N)c[nH]c2n1` [Example 268, 4-(cyclobutylamino)-2-((4-(dimethylphosphoryl)-2-methoxyphenyl)amino)-7H-pyrrolo[2,3-d]pyrimidine-5-carbonitrile], the figures for the pIC50 at human GST-CLK1 and at human GST-DYRK1A were 6.52 to 7.00 and 6.00 to 6.52, respectively.

Take `N#Cc1c[nH]c2nc(Nc3ccc(C(=O)N4CCOCC4)c4c3OCCO4)nc(N[C@H]3CCOC3)c12` [Example 128, (S)-2-((8-(morpholine-4-carbonyl)-2,3-dihydrobenzo[b][1,4]dioxin-5-yl)amino)-4-((tetrahydrofuran-3-yl)amino)-7H-pyrrolo[2,3-d]pyrimidine-5-carbonitrile]: the results for the pIC50 against human GST-CLK1 and on human GST-DYRK1A were 6.52 to 7.00 and 6.00 to 6.52, respectively.

Regarding `COc1cc(P2(=O)CCN(C3CC3)CC2)ccc1Nc1nc(NC2CC2)c2c(C#N)c[nH]c2n1` [Example 285, 2-((4-(1-cyclopropyl-4-oxido-1,4-azaphosphinan-4-yl)-2-methoxyphenyl)a-mino)-4-(cyclo-propylamino)-7H-pyrrolo[2,3-d]pyrimidine-5-carbonitrile], the results for the pIC50 against human GST-CLK1 and at human GST-DYRK1A were 6.52 to 7.00 and 6.00 to 6.52, respectively.

Consider `CCCNc1nc(Nc2ccc(P(C)(C)=O)cc2OC)nc2[nH]cc(C#N)c12` [Example 254, 2-((4-(dimethylphosphoryl)-2-methoxyphenyl)amino)-4-(propylamino)-7H-pyrrolo[2,3-d]pyrimidine-5-carbonitrile], for which the pIC50 against human GST-CLK1 and at human GST-DYRK1A was 6.52 to 7.00 each time.

Consider `COc1cc(P2(=O)CCN(C3COC3)CC2)ccc1Nc1nc(NCC2CCC2)c2c(C#N)c[nH]c2n1` [Example 307, 4-((cyclo-butylmethyl)amino)-2-((2-methoxy-4-(1-(oxetan-3-yl)-4-oxido-1,4-azaphosphinan-4-yl)phenyl)amino)-7H-pyrrolo[2,3-d]pyrimidine-5-carbonitrile], for which the results for the pIC50 at human GST-CLK1 and at human GST-DYRK1A were 6.52 to 7.00 and 6.00 to 6.52, respectively.

Consider `CC[C@@H](C)Nc1nc(Nc2ccc(P3(=O)CCN(C4CC4)CC3)cc2OC)nc2[nH]cc(C#N)c12` [Example 294, (R)-4-(sec-butylamino)-2-((4-(1-cyclopropyl-4-oxido-1,4-azaphosphinan-4-yl)-2-methoxyphenyl)a-mino)-7H-pyrrolo[2,3-d]pyrimidine-5-carbonitrile], for which the pIC50 on human GST-CLK1 is more than 7.00; on human GST-DYRK1A, 6.00 to 6.52.

Take `O=C(c1ccc(Nc2nc(NC3CCCCC3)c3c(C(F)(F)F)c[nH]c3n2)c2c1OCCO2)N1CCC(N2CCOCC2)CC1` [Example 204, (8-((4-(cyclohexylamino)-5-(trifluoromethyl)-7H-pyrrolo[2,3-d]pyrimidin-2-yl)amino)-2,3-dihydrobenzo[b][1,4]dioxin-5-yl)(4-morpholinopiperidin-1-yl)methanone]: the pIC50 is 6.00 to 6.52 against human GST-CLK1 and 6.52 to 7.00 at human GST-DYRK1A.

As for `CC[C@H](C)Nc1nc(Nc2ccc(S(C)(=O)=O)cc2OC)nc2[nH]cc(C#N)c12` [Example 102, (S)-4-(sec-butylamino)-2-((2-methoxy-4-(methylsulfonyl)phenyl)amino)-7H-pyrrolo[2,3-d]pyrimidine-5-carbonitrile], the pIC50 against human GST-CLK1 and on human GST-DYRK1A was 6.00 to 6.52 each time.

On to `CC[C@H](C)Nc1nc(Nc2ccc(S(=O)(=O)N3CCOCC3)cc2OC)nc2[nH]cc(C(F)(F)F)c12` [Example 379, (S)-N^4-(sec-butyl)-N^2-(2-methoxy-4-(morpholino-sulfonyl)phenyl)-5-(trifluoromethyl)-7H-pyrrolo[2,3-d]pyrimidine-2,4-diamine], for which the pIC50 against human GST-CLK1 and at human GST-DYRK1A was 6.00 to 6.52 throughout.

`CC[C@H](C)Nc1nc(Nc2ccc(P(C)(C)=O)cc2OC)nc2[nH]cc(C#N)c12` [Example 267, (S)-4-(sec-butylamino)-2-((4-(dimethylphosphoryl)-2-methoxyphenyl)amino)-7H-pyrrolo[2,3-d]pyrimidine-5-carbonitrile]: the pIC50 against human GST-CLK1 and on human GST-DYRK1A was 6.00 to 6.52 each time.

The record behind these values is patent US20230066011A1, “PYRROLOPYRIMIDINE DERIVATIVE, AND PHARMACEUTICAL COMPOSITION FOR PREVENTING OR TREATING PROTEIN KINASE-RELATED DISEASE COMPRISING SAME AS ACTIVE INGREDIENT” (VORONOI CO., LTD., priority 2019, published 2023).
